According to patent US20250236611A1, “PYRAZOLE COMPOUNDS AND USES THEREOF” (ALCON INC., priority 2021, published 2025):

Legend:
Type in all cases: biochemical
Conditions in all cases: 10 nM JAK enzyme, 800 nM Abl peptide, room temperature 75 min
[1] = biological target: JAK1 (Homo sapiens, UniProt P23458); test: JAK assay (KINASE-GLO luminescent kinase assay), JAK1
Experimental: (§1) All compounds were initially prepared as 10 mM stocks in anhydrous dimethylsulfoxide (DMSO). A 20 μL aliquot of the 10 mM solutions was transferred to individual wells in column 1 of a 96-well polypropylene microtiter plate (Corning #3363) and diluted with DMSO to give a final compound concentration of 4 mM. Test compounds were then serially diluted 1:5 in DMSO for an 11-point concentration response and further diluted in the assay buffer bringing all compound concentrations to a final range of 100 μM to 10 pM in 2.5% DMSO. The assay was performed in white 96-well, flat-bottom, half-area, non-binding assay plate (Corning #3642) in assay buffer consisting of 20 mM HEPES (pH 7.5), 10 mM MgCl2*6H2O, 100 μM sodium orthovanadate, 0.05% CHAPS and 0.1% bovine serum albumin. A 10 μL aliquot of compound from each well of the intermediate dilution plate and 20 μL of a 2×JAK substrate/enzyme solution containing acceptor substrate (800 nM Abl peptide), JAK enzyme (10 nM JAK1, JAK2, JAK3, or TYK2), and 1,4-Dithiothreitol (DTT, 2 μM) were added to all wells. The reaction was initiated by the addition of 10 μL of 4× stock solution ATP (2 μM). Reactions were thoroughly mixed manually, covered and allowed to incubate at room temperature for 75 min. Protein kinase activity was quantitated using Promega's KINASE-GLO™ luminescent Kinase Assay Kit according to the manufacturer's directions. ATP concentrations remaining in Test wells following the termination of the enzymatic reaction were compared against control wells containing equivalent amounts of DMSO containing no inhibitor (CTRL). […] Percent of Control (POC) values were determined for each concentration of compound tested according to the equation:
(§2) [formula] • IC50 values were calculated using the following 4-parameter logistic curve-fitting algorithm:
(§3) [formula] • IC50 values were converted to Ki values using the Cheng-Prusoff Equation: […]

[2] = biological target: JAK2 (Homo sapiens, UniProt O60674); test: JAK assay (KINASE-GLO luminescent kinase assay), JAK2
JAK2, sequence (O60674 whole entry): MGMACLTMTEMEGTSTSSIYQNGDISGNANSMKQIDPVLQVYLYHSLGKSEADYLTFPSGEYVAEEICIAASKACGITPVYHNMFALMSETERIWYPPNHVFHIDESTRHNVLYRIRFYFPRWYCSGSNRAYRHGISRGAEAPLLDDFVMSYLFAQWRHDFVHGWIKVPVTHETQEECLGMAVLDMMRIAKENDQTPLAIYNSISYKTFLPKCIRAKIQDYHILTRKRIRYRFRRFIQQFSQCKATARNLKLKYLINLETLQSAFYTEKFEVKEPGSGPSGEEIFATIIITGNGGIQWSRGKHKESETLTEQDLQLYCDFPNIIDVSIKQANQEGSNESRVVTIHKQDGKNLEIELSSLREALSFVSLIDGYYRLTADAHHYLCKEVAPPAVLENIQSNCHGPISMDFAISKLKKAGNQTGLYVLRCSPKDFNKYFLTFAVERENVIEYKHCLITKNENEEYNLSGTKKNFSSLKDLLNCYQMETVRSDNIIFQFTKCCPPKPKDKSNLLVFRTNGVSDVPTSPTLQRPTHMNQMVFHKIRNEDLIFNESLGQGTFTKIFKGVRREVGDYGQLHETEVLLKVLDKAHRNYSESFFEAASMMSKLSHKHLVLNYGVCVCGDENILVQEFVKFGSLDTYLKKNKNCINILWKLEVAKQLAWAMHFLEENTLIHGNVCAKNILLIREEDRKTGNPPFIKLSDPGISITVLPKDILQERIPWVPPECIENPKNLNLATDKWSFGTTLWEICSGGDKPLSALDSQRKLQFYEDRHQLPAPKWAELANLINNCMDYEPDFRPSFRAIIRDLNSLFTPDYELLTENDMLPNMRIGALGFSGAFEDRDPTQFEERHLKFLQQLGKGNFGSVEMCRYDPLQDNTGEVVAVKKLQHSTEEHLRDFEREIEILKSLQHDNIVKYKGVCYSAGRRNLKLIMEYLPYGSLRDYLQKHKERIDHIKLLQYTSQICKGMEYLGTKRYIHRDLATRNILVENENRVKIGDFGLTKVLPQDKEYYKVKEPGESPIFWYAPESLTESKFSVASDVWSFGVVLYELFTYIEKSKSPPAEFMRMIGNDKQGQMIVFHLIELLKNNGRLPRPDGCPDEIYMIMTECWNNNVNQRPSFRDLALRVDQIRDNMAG
Experimental: as §1, §2, §3

[3] = biological target: T1, JAK3 (Homo sapiens, UniProt P52333); test: JAK assay (KINASE-GLO luminescent kinase assay), JAK3
T1 sequence (P52333 1-1124): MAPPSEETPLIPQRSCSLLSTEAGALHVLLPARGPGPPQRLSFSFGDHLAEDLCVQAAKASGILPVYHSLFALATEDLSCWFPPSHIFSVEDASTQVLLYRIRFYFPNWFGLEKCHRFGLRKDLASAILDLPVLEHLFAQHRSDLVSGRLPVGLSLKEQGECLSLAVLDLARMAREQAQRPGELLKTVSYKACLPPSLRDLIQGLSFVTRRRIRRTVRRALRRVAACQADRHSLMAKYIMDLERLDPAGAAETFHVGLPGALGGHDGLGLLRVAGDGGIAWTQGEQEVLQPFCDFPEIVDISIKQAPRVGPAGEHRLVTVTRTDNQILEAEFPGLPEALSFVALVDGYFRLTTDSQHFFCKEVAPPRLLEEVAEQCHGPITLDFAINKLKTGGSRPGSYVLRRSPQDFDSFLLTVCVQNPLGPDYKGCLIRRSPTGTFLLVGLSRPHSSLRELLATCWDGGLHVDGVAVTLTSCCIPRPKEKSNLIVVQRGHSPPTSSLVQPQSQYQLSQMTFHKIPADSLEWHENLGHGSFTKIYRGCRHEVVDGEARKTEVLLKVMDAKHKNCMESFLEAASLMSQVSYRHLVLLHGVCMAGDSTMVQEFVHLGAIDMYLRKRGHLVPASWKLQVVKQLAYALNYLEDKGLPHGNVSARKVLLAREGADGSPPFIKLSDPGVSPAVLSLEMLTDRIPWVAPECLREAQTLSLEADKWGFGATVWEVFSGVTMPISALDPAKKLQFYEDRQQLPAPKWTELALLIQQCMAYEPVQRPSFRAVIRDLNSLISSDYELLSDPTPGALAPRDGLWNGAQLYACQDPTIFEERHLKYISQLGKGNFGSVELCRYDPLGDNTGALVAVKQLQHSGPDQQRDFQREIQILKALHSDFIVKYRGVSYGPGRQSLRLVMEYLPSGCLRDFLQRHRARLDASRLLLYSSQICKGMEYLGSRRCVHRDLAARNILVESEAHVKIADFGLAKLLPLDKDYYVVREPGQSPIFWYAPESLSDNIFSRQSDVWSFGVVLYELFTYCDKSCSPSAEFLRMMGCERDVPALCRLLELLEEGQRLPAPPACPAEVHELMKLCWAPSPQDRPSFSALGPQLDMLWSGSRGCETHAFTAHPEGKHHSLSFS
Experimental: as §1, §2, §3

[4] = biological target: TYK2 (Homo sapiens, UniProt P29597); test: JAK assay (KINASE-GLO luminescent kinase assay), TYK2
TYK2, sequence (P29597 whole entry): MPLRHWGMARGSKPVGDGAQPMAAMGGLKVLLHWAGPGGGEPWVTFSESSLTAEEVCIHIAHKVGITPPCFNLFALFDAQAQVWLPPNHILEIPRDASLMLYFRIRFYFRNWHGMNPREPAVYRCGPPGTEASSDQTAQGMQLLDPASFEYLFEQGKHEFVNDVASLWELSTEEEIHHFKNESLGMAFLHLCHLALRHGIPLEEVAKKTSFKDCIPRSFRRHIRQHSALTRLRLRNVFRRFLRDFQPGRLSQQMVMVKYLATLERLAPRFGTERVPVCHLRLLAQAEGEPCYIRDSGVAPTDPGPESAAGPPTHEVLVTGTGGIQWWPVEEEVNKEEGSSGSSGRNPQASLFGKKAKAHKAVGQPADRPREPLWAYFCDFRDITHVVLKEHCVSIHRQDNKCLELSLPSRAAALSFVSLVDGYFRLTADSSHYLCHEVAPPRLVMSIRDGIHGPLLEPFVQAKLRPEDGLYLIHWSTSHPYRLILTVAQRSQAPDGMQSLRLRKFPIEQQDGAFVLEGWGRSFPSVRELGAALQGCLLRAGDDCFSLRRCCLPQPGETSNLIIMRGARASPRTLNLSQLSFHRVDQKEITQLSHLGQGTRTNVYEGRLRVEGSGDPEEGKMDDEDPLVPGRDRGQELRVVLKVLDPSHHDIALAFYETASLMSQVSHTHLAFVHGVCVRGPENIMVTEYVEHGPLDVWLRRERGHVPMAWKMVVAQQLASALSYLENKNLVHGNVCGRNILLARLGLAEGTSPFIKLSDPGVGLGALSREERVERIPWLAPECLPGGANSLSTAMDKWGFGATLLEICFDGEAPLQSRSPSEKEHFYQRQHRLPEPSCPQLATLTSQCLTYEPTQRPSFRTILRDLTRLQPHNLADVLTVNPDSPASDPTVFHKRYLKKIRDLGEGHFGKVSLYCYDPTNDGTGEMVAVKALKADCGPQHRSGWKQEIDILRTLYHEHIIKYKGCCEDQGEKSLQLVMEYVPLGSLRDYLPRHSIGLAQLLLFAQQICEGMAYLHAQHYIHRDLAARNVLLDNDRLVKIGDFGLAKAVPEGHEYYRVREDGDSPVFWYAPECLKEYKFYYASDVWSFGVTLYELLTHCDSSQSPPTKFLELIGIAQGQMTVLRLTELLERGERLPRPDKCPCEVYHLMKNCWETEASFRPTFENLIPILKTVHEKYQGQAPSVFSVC
Experimental: as §1, with “A 20 μL aliquot of the 10 mM solutions was transferred to individual wells in column 1 of a 96-well polypropylene microtiter plate (Corning #3363) and diluted with DMSO to give a final compound concentration of 4 mM.” left out
as §2, §3

JAK1, sequence (P23458 whole entry): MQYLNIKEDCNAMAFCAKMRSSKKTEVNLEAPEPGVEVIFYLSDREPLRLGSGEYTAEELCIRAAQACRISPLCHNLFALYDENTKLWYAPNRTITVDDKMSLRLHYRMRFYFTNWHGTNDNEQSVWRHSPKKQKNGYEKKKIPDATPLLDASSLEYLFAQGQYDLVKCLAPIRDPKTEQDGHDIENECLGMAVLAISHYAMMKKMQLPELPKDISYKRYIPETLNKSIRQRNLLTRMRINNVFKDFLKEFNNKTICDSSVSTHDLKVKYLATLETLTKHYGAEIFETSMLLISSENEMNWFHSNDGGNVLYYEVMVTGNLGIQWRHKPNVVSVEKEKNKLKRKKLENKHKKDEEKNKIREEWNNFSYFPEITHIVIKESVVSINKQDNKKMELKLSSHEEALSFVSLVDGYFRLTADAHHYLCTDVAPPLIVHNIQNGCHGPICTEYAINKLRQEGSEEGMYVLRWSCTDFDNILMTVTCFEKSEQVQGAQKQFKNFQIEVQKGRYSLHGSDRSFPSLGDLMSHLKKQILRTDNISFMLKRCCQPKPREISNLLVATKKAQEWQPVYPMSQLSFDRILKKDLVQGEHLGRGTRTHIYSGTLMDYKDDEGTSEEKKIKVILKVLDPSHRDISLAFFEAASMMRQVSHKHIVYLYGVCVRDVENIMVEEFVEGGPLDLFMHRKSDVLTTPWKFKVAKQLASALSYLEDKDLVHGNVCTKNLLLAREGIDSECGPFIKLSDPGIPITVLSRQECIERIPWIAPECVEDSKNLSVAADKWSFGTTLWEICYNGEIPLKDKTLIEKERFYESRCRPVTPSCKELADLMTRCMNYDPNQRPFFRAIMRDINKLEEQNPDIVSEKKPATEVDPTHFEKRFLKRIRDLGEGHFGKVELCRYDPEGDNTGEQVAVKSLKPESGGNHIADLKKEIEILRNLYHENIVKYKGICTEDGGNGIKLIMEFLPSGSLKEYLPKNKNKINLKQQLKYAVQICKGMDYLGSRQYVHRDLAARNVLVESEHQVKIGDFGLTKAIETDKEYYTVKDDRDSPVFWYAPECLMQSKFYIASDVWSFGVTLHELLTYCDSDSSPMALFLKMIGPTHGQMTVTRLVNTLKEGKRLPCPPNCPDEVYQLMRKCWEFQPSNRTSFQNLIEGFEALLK

Row | SMILES | IC50 [1] [nM] | IC50 [2] [nM] | IC50 [3] [nM] | IC50 [4] [nM]
1 | Cc1cnc(Nc2ccc(C3CN(C(=O)OC(C)(C)C)C3)cc2)nc1-c1cnn(CCC#N)c1 [CC1═C(N═C(NC2═CC═C(C═C2)C3CN] | < 100 | < 10 | < 100 | < 10
2 | Cc1cnc(Nc2ccc(N3CC4(COC4)C3)cc2)nc1-c1cnn(CC2(CF)CC2)c1 [CC1═C(N═C(NC2═CC═C(C═C2)N3CC4] | < 100 | < 10 | < 10 | < 100
3 | Cc1cnc(Nc2ccc(N3CCN(C(=O)OC(C)(C)C)CC3)cc2)nc1-c1cnn(CC2(CF)CC2)c1 [CC1═C(N═C(NC2═CC═C(C═C2)N3CCN] | < 1000 | < 10 | < 100 | < 100
4 | Cc1cnc(Nc2ccc(S(C)(=O)=O)cc2)nc1-c1cnn(CC2(Cl)CC2)c1 [CC1═C(N═C(NC2═CC═C(C═C2)[S]] | < 100 | < 10 | < 10 | < 10
5 | Cc1cnc(Nc2ccccn2)nc1-c1cnn(CC2(Cl)CC2)c1 [CC1═C(N═C(NC2═CC═CC═N2)N═C1)C3═C[N]] | < 100000 | < 1000 | < 100000 | < 100000
6 | Cc1cnc(Nc2cnc(N3CCOCC3)nc2)nc1-c1cnn(CC2(CF)CC2)c1 [CC1═C(N═C(NC2═CN═C] | < 1000 | < 10 | < 100 | < 1000
7 | Cc1cnc(NC(=O)Nc2ccc(Cl)cc2)nc1-c1cnn(CC2(CF)CC2)c1 [CC1═C(N═C(NC(═O)NC2═CC═C] | > 50000 | > 50000 | > 50000 | > 50000
8 | Cc1cnc(NC(=O)Oc2ccc(Cl)cc2)nc1-c1cnn(CC2(CF)CC2)c1 [CC1═C(N═C(NC(═O)OC2═CC═C] | < 100000 | < 1000 | < 100000 | < 100000
9 | Cc1cnc(NCCCN2CCOCC2)nc1-c1cnn(CCC#N)c1 [CC1═C(N═C(NCCCN2CCOCC2)N═C1)C3═C[N]] | > 50000 | < 100000 | > 50000 | < 100000
10 | Cc1cnc(NCCN2CCCCC2)nc1-c1cnn(CCC#N)c1 [CC1═C(N═C(NCCN2CCCCC2)N═C1)C3═C[N]] | > 50000 | > 50000 | > 50000 | > 50000
11 | Cc1cnc(NCCO)nc1-c1cnn(CCC#N)c1 [CC1═C(N═C(NCCO)N═C1)C2═C[N]] | < 100000 | < 100000 | < 100000 | < 100000
12 | C=CCNc1ncc(C)c(-c2cnn(CCC#N)c2)n1 [CC1═C(N═C(NCC═C)N═C1)C2═C[N]] | < 100000 | < 100000 | < 100000 | < 100000
13 | Cc1cnc(N2CCCCC2)nc1-c1cnn(CCC#N)c1 [CC1═C(N═C(N═C1)N2CCCCC2)C3═C[N]] | > 50000 | > 50000 | > 50000 | > 50000
14 | Cc1cc(Nc2ncc(Cl)c(-c3cnn(CCC#N)c3)n2)no1 [CC1═CC(═NO1)NC2═NC(═C] | < 1000 | < 100 | < 1000 | < 100
15 | Cc1ccc(Nc2ncc(C)c(-c3cnn(CC4(Cl)CC4)c3)n2)cc1S(C)(=O)=O [CC1═CC═C(NC2═NC(═C(C)C═N2)C3═C[N]] | < 100 | < 100 | < 100 | < 100
16 | Cc1cncc(Nc2ncc(C)c(-c3cnn(CC4(CF)CCC4)c3)n2)c1 [CC1═CN═CC(═C1)NC2═NC(═C] | < 100 | < 10 | < 100 | < 100
17 | Cc1cc(Nc2ncc(C)c(-c3cnn(CC4(CF)CCC4)c3)n2)ccn1 [CC1═NC═CC(═C1)NC2═NC(═C] | < 1000 | < 10 | < 100 | < 100
18 | Cc1cc(Nc2ncc(Cl)c(-c3cnn(CCC#N)c3)n2)on1 [CC1═NOC(═C1)NC2═NC(═C] | < 100 | < 10 | < 1000 | < 100
19 | Cc1cc(Nc2nc3c(c(-c4cnn(CC5(C#N)COC5)c4)n2)CN(C(=O)OC(C)(C)C)C3)sn1 [CC1═NSC(═C1)NC2═NC(═C3CN] | > 50000 | > 50000 | > 50000 | > 50000
20 | Cc1cc(Nc2ncc(C)c(-c3cnn(CC4(CF)CCC4)c3)n2)sn1 [CC1═NSC(═C1)NC2═NC═C(C)C] | < 10 | < 10 | < 10 | < 10
21 | CC(C)(C)OC(=O)N1CC(C#N)(Cn2cc(-c3nc(Nc4ccc(C(N)=O)cc4)ncc3Cl)cn2)C1 [CC(C)(C)OC(═O)N1CC(C1)(C[N]2C═C] | < 100 | < 10 | < 100 | < 100
22 | CC(C)(C)OC(=O)N1CC(CF)(Cn2cc(-c3nc(Nc4ccc(C(N)=O)cc4)ncc3Cl)cn2)C1 [CC(C)(C)OC(═O)N1CC(CF)(C1)C[N]2C═C] | < 100 | < 100 | < 100 | < 100
23 | CC(C)(C)OC(=O)N1CC(CO)(Cn2cc(-c3nc(Nc4ccc(C(N)=O)cc4)ncc3Cl)cn2)C1 [CC(C)(C)OC(═O)N1CC(CO)(C1)C[N]2C═C] | < 1000 | < 100 | < 100 | < 1000
24 | CC(C)(C)OC(=O)N1CCC(Nc2ncc(Cl)c(-c3cnn(CCC#N)c3)n2)C(F)(F)C1 (stereo not drawn) [CC(C)(C)OC(═O)N1CCC(NC2═NC(═C] | > 50000 | > 50000 | > 50000 | > 50000
25 | CC(C)(C)OC(=O)N1CCN(c2ccc(Nc3ncc(Cl)c(-c4cnn(CCC#N)c4)n3)cc2)CC1 [CC(C)(C)OC(═O)N1CCN(CC1)C2═CC═C] | < 100 | < 10 | < 10 | < 10
26 | CC(C)(C)OC(=O)NCc1cccc(Nc2ncc(Cl)c(-c3cnn(CC4(CF)CC4)c3)n2)c1 [CC(C)(C)OC(═O)NCC1═CC═CC] | 157 | < 100 | < 10 | < 100
27 | CC(=O)OCCc1ccc(Nc2ncc(Cl)c(-c3cnn(CCC#N)c3)n2)cc1 [CC(═O)OCCC1═CC═C(NC2═NC(═C] | < 100 | < 10 | < 100 | < 10
